“And” between values parts separate entries of the source, which are not always exact repeats. Identical values can stand only once. Like-named read-outs stand apart in the source and are kept apart here.
Legend:
A. fumigatus SglA = A. fumigatus SglA (Aspergillus fumigatus, UniProt Q4WXA7); experiment: Ergosterol 3β-D-glucoside (ErgGlc) hydrolysis by SglA, ergosterol quantified by HPLC; assay type: biochemical
Protocol: We assessed the potential inhibition of SglA enzymatic activity toward ErgGlc by the seven derivatives at concentrations of 0.1, 1, 10, and 100 μM.
A 50-μL volume of wild-type Af SglA containing 10 ng of protein (0.11 pmol) and 50 μL of mixed micelles of lipid and Triton X-100 in 50 mM sodium acetate buffer (pH 5.5) with 150 mM NaCl, 5 mM βME, and 5 mM DTT were mixed and incubated at 37°C for 20 min (ErgGlc; Avanti Polar Lipids). After the incubation period, each reaction was quenched with a 2:1 chloroform-methanol solution, and the organic phase was collected and dried. Then, the lipid content was resuspended in […] methanol and analized by HPLC using Agilent 1260 Infinity II (Agilent Technologies). Total ErgGlc and ergosterol were detected at 282 nm on a C8 column with a flow rate of 0.5 mL/min in methanol-water (90:10) buffered with 1 mM ammonium formate and 0.2% formic acid.

[1] = test system: human lung epithelial cancer cell line A549; details: 24 h
Protocol: The cells were maintained in Dulbecco’s modified Eagle medium (DMEM) containing 10% fetal bovine serum (FBS) and 1% penicillin-streptomycin. At passage 11, 10^5 cells were transferred into each well of 96-well plates and cultured for 18 to 24 h to allow the cells to adhere to the well surface. Next, the medium was removed, and fresh medium containing the selected compounds at concentration range of 1 to 512 μM was added to the wells. Controls with equivalent serial concentrations of DMSO were also evaluated and compared with a control without DMSO. The plate was incubated at 37°C with 5% CO2. After 24 h, the supernatant was removed and 50 μL of 5 mg/mL 3-(4,5-dimethylthiazol-2-yl)-2,5-diphenyltetrazoliumbromide (MTT) solution in PBS was added to each well. The plates were incubated for an additional 4 h, and the formazan crystals formed inside the cell were dissolved by adding 50 μL DMSO. Next, the absorbance was measured at 570 nm, and the calculated LD50 was divided by the IC50 of each hit in order to determine the SI of each compound.

wild-type Af [2] = experiment: Ergosterol 3-β-D-glucoside accumulation in live cells (LC-MS); assay type: cell-based, Aspergillus fumigatus; details: 48 h; for ErgGlc accumulation versus control (untreated wild-type Af): 100 and 500 μM
Protocol: Wild-type Af ΔKu80pyrG1a and the mutant Δsgla strain were cultivated in yeast extract-glucose medium (YAG) (2% [wt/vol] glucose, 0.5% [wt/vol] yeast extract, 1× trace elements, 1× amino acid solution, 2% [wt/vol] bacteriological agar) for 48 h at 37°C. High-nitrate salts, trace elements, and amino acid solutions were prepared as previously described ([37]). The medium was supplemented with 1.2 g/L of uracil and uridine (UU), generating YAG+UU medium when the strain ΔKu80pyrG1a was used. After that, the a conidial suspension in water was obtained, and a pellet with 1 × 10^7 conidia was treated in minimal medium broth pH 6.5 (MM or MM+UU) (1% [wt/vol] glucose, 1× high-nitrate salts, 1× trace elements) for 48 h at 37°C under agitation, with the hits selected, according to the toxicity criteria, at various concentrations. […] After that, the resultant hyphal pellet was used for lipid extraction. Then, the total lipid was extracted as described by Singh et al. ([39]). The dried samples were resuspended in 2:1 chloroform-methanol for liquid chromatography-mass spectrometry (LC-MS) analysis. A standard ErgGlc from Avanti Polar Lipids was used as a control for the calibration curve. Data were normalized to the total inorganic phosphate content in the sample.

Af wild-type strain [3] = experiment: Lung fungal burden quantification by qPCR; assay type: in vivo, CBA/J mice; details: hit B 20, hit C 60, B7 5 mg/kg/day intraperitoneally
Protocol: Lung fungal burden was assessed by the determination of the amplification of fungal 18S DNA by qPCR. The lungs of euthanized mice were aseptically removed and immediately frozen in liquid nitrogen. Genomic DNA extraction was carried out as previously described by Malavazi and Goldman ([40]) with modifications. Previous to the genomic DNA extraction, the lungs were lyophilized for 2 to 3 days, ground using 2-mm glass beads, resuspended in 1 mL of lysis buffer, and vortexed thoroughly. One milliliter of phenol-chloroform–isoamyl alcohol (25:24:1), stabilized and saturated with 100 mM Tris-EDTA to pH 8.0 (Sigma-Aldrich), was added, and the mixture was vortexed for 10 min to extract nucleic acid. The mixture was centrifuged, and the aqueous phase was collected, and the genomic DNA was precipitated with 500 μL isopropanol. The DNA pellet was washed with 500 μL cold 70% ethanol and air dried, and the DNA pellet was resuspended in 100 μL of DNase-free water. The primers Fungal 18S 5′ UTR fw ([…]) and 3′ UTR rv ([…]) and the mouse glyceraldehyde-3-phosphate dehydrogenase (GAPDH) primers 5′ UTR fw ([…]) and 3′ UTR rv ([…]) were amplified using SYBR green PCR master mix (Thermo Fisher Scientific).

wild-type Af [4] = experiment: Filamentation assay (hyphal length); assay type: cell-based, Aspergillus fumigatus; details: 12 h
Protocol: To evaluate hyphal growth, conidial suspensions of the Af wild-type strain ΔKu80pyrG1a and the Δsgla and Δsgla+SGLA strains were obtained as described above. Then, the assay conditions were performed as previously described by Fernandes et al. ([16]). For that, 1 × 10^5 conidia of strain ΔKu80pyrG1a were inoculated onto a glass-bottom dish containing 2 mL of MM or MM+UU with and without the experimental compounds in various concentrations and grown at 37°C for 10 to 12 h. MM broth without the compounds were used for the mutant and the reconstituted strains. The living hyphae growing attached to the glass were analyzed by differential inference contrast (DIC) microscopy using a Zeiss Observer D.1 microscope, and the hyphal length was measured using ImageJ software.

Af wild-type strain [5] = experiment: Mouse model of pulmonary aspergillosis, survival; assay type: in vivo, CBA/J mice
Protocol: Male and female CBA/J mice 5 to 6 weeks old were purchased from Envigo and allowed 1 week to acclimate upon arrival. One day prior to infection, the animals were immunosuppressed with 100 mg/kg of the corticosteroid triamcinolone acetonide (Alfa Aesar) subcutaneously as previously described ([16]). On the day of the infection, the animals were initially anesthetized with a ketamine-xylazine solution (95 mg of ketamine and 5 mg of xylazine per kg of body weight) intraperitoneally and then infected with 2.5 × 10^4 Af wild-type ΔKu80pyrG+ conidia in 20 μL of PBS intranasally. One hour after the procedure, intraperitoneal treatment with hit B (5 and 20 mg/kg/day) and hit C (20 and 60 mg/kg/day) was started and continued until 30 days postinfection. Mice that survived until day 30 were euthanized by CO2 inhalation and used for organ fungal burden determinations. A similar procedure was performed for derivative B7 at a dose of 5 mg/kg/day.

Af SglA = Af SglA (Aspergillus fumigatus, UniProt Q4WXA7); experiment: HTS / resorufin 3β-D-glucopyranoside (ResGlp) enzymatic assay of SglA; assay type: biochemical; details: primary screen, ResGlp as the substrate, single compounds 0.25 to 4 μM
Protocol: (§1) Resorufin 3β-D-glucopyranoside (ResGlp; Sigma-Aldrich) enzyme kinetic assays were performed according to methods described by Pereira de Sa et al. ([17]). Reaction buffer contained 50 mM citric acid, 176 mM K2HPO4 (pH 6), 0.01% Tween 20, and 10 mM sodium taurocholate. The reaction was carried out in a black 96-well plate using 0.23 pmol of SglA with 100 μM ResGlp substrate. 10 μL/well of ResGlp was added to each well and the reaction was initiated by adding 20 μL enzyme (0.23 pmol). After incubation at 37°C for 30 min, the fluorescence was read at an excitation of 570 (±10) nm and an emission of 610 (±10) nm on a VersaMax microplate reader from Molecular Devices. A standard curve was prepared with serial dilutions of the free fluorophore, resorufin, in the same volume of assay buffer. All reactions were linear with respect to time and protein concentration, and the pH, temperature, and dimethyl sulfoxide (DMSO) optimal tolerance were verified.
(§2) A ChemBridge DIVERSet-CL library (ChemBridge, San Diego, CA) containing 50,000 compounds was screened to identify small molecules that inhibit Af SglA. The library was prepared in a 96-well plate format containing a cocktail of 10 compounds per well at 1 mM each in 100% DMSO. The cocktail plates were first diluted to 100 μM each (1:10 dilution in Dulbecco’s phosphate-buffered saline [DPBS]), resulting in 10% DMSO. In order to screen the compound cocktails at […] in 1% DMSO in a final reaction volume of 30 μL, an aliquot of 3 μL was added to 17 μL of buffer containing 0.23 pmol of enzyme and the reaction was started by adding 10 μL of 100 μM ResGlp. A negative control without enzyme and positive controls with and without DMSO were prepared. The plates were incubated at 37°C for 30 min. The Z′ factor was used for the assessment of the efficiency of the HTS assay for each plate. Values greater than 0.5 are considered indicators of excellent screening assay quality ([36]).

[6] = test system: O=c1ccc2nc3ccc(O[C@@H]4O[C@H](CO)[C@@H](O)[C@H](O)[C@H]4O)cc3oc-2c1; experiment: as above; assay type: biochemical, Aspergillus fumigatus; details: other: substrate kinetics, 0.23 pmol of SglA; pH 6.0; 37.0 °C
Protocol: as §1, §2

[7] = substrate in Triton X-100 mixed micelles, 0.11 pmol SglA, 20 min
[8] = ErgGlc as the substrate, read-out: IC50

Sequence of A. fumigatus SglA (Q4WXA7 entry or part of it): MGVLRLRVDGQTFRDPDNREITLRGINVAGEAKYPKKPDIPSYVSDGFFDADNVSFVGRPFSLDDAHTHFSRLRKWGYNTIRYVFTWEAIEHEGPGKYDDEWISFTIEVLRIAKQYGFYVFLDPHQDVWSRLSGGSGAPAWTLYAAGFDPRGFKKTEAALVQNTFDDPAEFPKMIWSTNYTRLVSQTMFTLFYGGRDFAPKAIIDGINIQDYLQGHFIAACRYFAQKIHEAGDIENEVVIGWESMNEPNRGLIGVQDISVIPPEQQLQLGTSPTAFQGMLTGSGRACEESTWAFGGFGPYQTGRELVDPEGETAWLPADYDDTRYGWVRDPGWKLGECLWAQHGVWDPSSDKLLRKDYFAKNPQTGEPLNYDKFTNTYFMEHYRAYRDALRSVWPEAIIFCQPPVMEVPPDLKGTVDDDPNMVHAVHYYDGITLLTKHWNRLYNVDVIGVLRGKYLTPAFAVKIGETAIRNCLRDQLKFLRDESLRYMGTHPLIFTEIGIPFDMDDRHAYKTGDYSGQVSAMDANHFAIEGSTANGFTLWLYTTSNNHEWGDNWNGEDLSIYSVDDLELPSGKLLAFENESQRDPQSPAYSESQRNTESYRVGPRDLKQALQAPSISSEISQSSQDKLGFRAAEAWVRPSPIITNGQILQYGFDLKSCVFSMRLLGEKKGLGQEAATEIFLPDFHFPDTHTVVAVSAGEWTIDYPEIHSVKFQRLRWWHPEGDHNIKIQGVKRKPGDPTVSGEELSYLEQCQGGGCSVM
Sequence of Af SglA (Q4WXA7 entry or part of it): as above

## CC(C)[C@@H](C)/C=C/[C@@H](C)[C@H]1CC[C@H]2C3=CC=C4C[C@@H](O[C@@H]5O[C@H](CO)[C@@H](O)[C@H](O)[C@H]5O)CC[C@]4(C)[C@H]3CC[C@]12C [ErgGlc, ergosterol 3β-D-glucoside, reference compound]
A. fumigatus SglA; [7]
  Km: 0.57 ± 0.09 mol%
  kcat: 0.73 ± 0.04 s⁻¹

## Cc1cc(CNc2cc(N)ncn2)c2[nH]c(C)c(C)c2c1 [Hit B1, N-[(2,3,5-trimethyl-1H-indol-7-yl)methyl]pyrimidine-4,6-diamine]
A. fumigatus SglA; [8]
  IC50: > 100 µM

## Cc1[nH]c2ccc(CNc3cc(NCCO)ncn3)cc2c1C [Hit B2, 2-[(6-{[(2,3-dimethyl-1H-indol-5-yl)methyl]amino}pyrimidin-4-yl)amino]ethanol]
A. fumigatus SglA; [8]
  IC50: 15 µM

## CCc1[nH]c2ccc(CNc3ccnc(N)n3)cc2c1C [Hit B3, N~4~-[(2-ethyl-3-methyl-1H-indol-5-yl)methyl]pyrimidine-2,4-diamine]
A. fumigatus SglA; [8]
  IC50: > 100 µM

## Cc1cc(CNc2ccnc(N)n2)c2[nH]c(C)c(C)c2c1 [Hit B4, N~4~-[(2,3,5-trimethyl-1H-indol-7-yl)methyl]pyrimidine-2,4-diamine]
A. fumigatus SglA; [8]
  IC50: > 100 µM

## Cc1[nH]c2ccc(CNc3cc(N4CCOCC4)ncn3)cc2c1C [Hit B5, N-[(2,3-dimethyl-1H-indol-5-yl)methyl]-6-morpholin-4-ylpyrimidin-4-amine]
A. fumigatus SglA; [8]
  IC50: 15 µM

## CCc1[nH]c2ccc(CNc3cc(C)nc(NC)n3)cc2c1C [Hit B6, N~4~-[(2-ethyl-3-methyl-1H-indol-5-yl)methyl]-N~2~,6-dimethylpyrimidine-2,4-diamine]
A. fumigatus SglA; [8]
  IC50: 9 µM

## CCc1[nH]c2ccc(CNc3nc(C)cc(NC)n3)cc2c1C [Hit B7, N~2~-[(2-ethyl-3-methyl-1H-indol-5-yl)methyl]-N~4~,6-dimethylpyrimidine-2,4-diamine]
[1]
  LD50: 200 µM
wild-type Af [2]; 100 μM
  ErgGlc accumulation compared with hit B: significantly higher accumulation of ErgGlc than treatment with hit B
Af wild-type strain [3]
  lung fungal burden of mice that survived 30 days: full recovery
wild-type Af [4]; 50 and 100 μM
  hyphal length compared with hit B: shorter hyphae than hit B
A. fumigatus SglA
  IC50: 3 µM

## Cc1[nH]c2ccc(CNc3cc(N)ncn3)cc2c1C [Hit B]
Af wild-type strain [5]; 20 mg/kg/day intraperitoneally, 30 days, immunosuppressed mice
  survival of animals: 50%
wild-type Af [2]
  ErgGlc accumulation versus control (untreated wild-type Af): differed significantly from the control
Af wild-type strain [3]
  lung fungal burden of mice that survived 30 days: no fungal burden in the lung tissue
wild-type Af [4]; 50 and 100 μM, 37°C
  germination and hyphal growth of Af wild-type conidia: significantly delays the germination and hyphal growth
A. fumigatus SglA
  IC50: 10 µM
A. fumigatus SglA; ErgGlc as the substrate
  IC50: low micromolar range
Af SglA
  IC50: 1 µM and 1 to 2 µM

## CC(Cc1ccc2c(c1)OCO2)c1c(-c2ccccc2)ncn1CCO (centres unmarked) [Hit C]
[1]
  LD50: > 200 µM
Af wild-type strain [5]; 60 mg/kg/day intraperitoneally
  survival versus infected untreated mice: significantly prolonged mouse survival
Af wild-type strain [5]; 60 mg/kg/day intraperitoneally, until day 30 postinfection
  survival of animals: 20%
wild-type Af [2]
  ErgGlc accumulation versus control (untreated wild-type Af): differed significantly from the control
Af wild-type strain [3]
  lung fungal burden of mice that survived 30 days: full lung clearance
wild-type Af [4]; all concentrations tested (1 to 100 μM)
  hyphal growth: significantly reduced hyphal growth at all concentrations tested
A. fumigatus SglA; ErgGlc as the substrate
  IC50: low micromolar range
Af SglA
  IC50: 2 µM and 1 to 2 µM

## Af SglA (Aspergillus fumigatus Af293)
[6]
  Km: 86.2 µM

— publication PMC10128061, “Targeting Sterylglucosidase A to Treat Aspergillus fumigatus Infections” (mBio, 2023)
